Test results as given in PMC9896555, “Cyclic Acetals as Novel Long-Lasting Mosquito Repellents” (Journal of Agricultural and Food Chemistry, 2023).
Values joined by “and” are separate entries in the source; they are usually repeats but may differ in a detail not shown here. Equal entries are not always repeated. “Also recorded” adds a separate entry of the source. Where two headings read alike, the source gives them in different places.

Key:
HaCaT cells = test: Cytotoxicity on human keratinocytes (MTS); assay type: cell-based; details: 82 μg/mL, 24 h
Procedure: HaCaT cells were cultured in 5% CO2 at 37 °C in Dulbecco’s modified Eagle’s medium (DMEM), supplemented with 10% fetal bovine serum (FBS), 1% L-glutamine ([…]), and 1% penicillin–streptomycin (Thermo Fisher Scientific, Rodano, Milan, Italy). […] Experiments were performed in triplicate.

Caco-2 monolayer = test: Transwell permeation test; assay type: in vitro ADME; details: 82 μg/mL apical, 3 h
Procedure: To evaluate the possibility of absorption after topical application, we tested the permeation through a Caco-2 monolayer for those compounds best performing in terms of protection time and cytotoxicity. The colorectal adenocarcinoma cell line Caco-2 was purchased from ATCC and cultured in DMEM with 20% FBS, L-glutamine (2 mM), and 1% penicillin–streptomycin 100 U/mL (Thermo Fisher Scientific, Rodano, Milan, Italy) in 5% CO2 at 37 °C.
For the permeation studies, Caco-2 cells, a model of epithelial cells, were seeded into 12-well PET Transwell plates (1.13 cm^2 growth surface area and pore size 0.4 μm, Greiner Bio-One, Milan, Italy) at a density of 2 × 10^5 cells/cm^2 and grown for 21 days to form a confluent monolayer. The integrity of the cellular barrier was then assessed using Lucifer Yellow (LY) permeability test, before the experiments.[33]
After washing, the monolayers were preincubated for 20 min at 37 °C with 0.5 and 1.5 mL of the incubation medium, HBSS/HEPES 25 mM in the apical and basolateral sides, respectively. […] At the end of the experiment, the layer integrity was re-evaluated. […]
One hundred microliters of the collected media was extracted in 100 μL of heptane by vortexing the vial for 2 min; 70 μL of this solution was recovered; and 1 μL was injected in a 7820 GC system-5977B MSD system and analyzed under the same conditions reported in paragraph 2.2. […]

Aedes albopictus [1] = test: Protection time at 0.17 mg/cm2, human-bait technique; assay type: in vivo; details: for pest or weed control at 0.17 mg/cm2, 0.17 mg/cm2: Aedes albopictus, topical, read-out: Protection time PE%; for Average PT >95% (% coefficient of variation) / Estimated 100% PT (complete protection time, mean±SE): at the dose of 0.17mg/cm2; for Estimated 100% PT (complete protection time, mean±SE): Kaplan–Meier estimate; for Protection time (95% protection): dose of 0.17 mg/cm^2, tests ended after 8 h
Procedure: To evaluate the protection time of derivatives, the PE % was measured with 100 μL of a 5% ethanol solution, corresponding to 0.17 mg/cm^2 of exposed skin, under the same laboratory conditions. Mosquito-exposed skin was treated with 100 μL of ethanol, as the negative hand control. For each volunteer (up to 8), the test was performed every hour, up to 8 h from the application. The protection time of DEET and Icaridin was measured under the same conditions. Since these trials were run in parallel with those aimed to profile the cytotoxicity of the compounds (paragraph 2.6), we interrupted the experiments for those compounds showing to have higher cytotoxicity than Icaridin and DEET as soon as the results were available. For this reason, the number of volunteers differs among the compounds.
The average time until protection which was higher than 95% protection time was considered for each compound. Moreover, for the compounds tested on at least three volunteers, the complete (100%) protection time was also estimated (SPSS 28.01.0) using the Kaplan–Meier survivor function procedure.[22]

RAW 264.7 = test: Immunogenicity on murine macrophages (nitric oxide release); assay type: cell-based; details: for immunogenicity (nitric oxide release / nitrite production), in words: RAW264.7, 82 μg/mL, 6 h
Procedure: Cells were cultured in DMEM, with 10% FBS, 1% L-glutamine (2 mM), and 1% penicillin–streptomycin 100 U/mL at 37 °C in an atmosphere containing 5% CO2. RAW264.7 were seeded (1 × 10^5 cells/well) and exposed to five derivatives or Icaridin, at 82 μg/mL or to LPS (1 μg/mL) as a positive control, for 3 and 6 h. After that, nitric oxide release was determined in the culture media as previously described.[32] Experiments were performed in triplicate.

Aedes albopictus [2] = test: Effective dose / protection efficacy, human-bait technique; assay type: in vivo; details: for pest or weed control at 0.081 µg/cm2, 0.081 µg/cm2 / pest or weed control at 0.17 µg/cm2, 0.17 µg/cm2 / pest or weed control at 0.33 µg/cm2, 0.33 µg/cm2 / pest or weed control at 0.5 µg/cm2, 0.5 µg/cm2 / pest or weed control at 0.83 µg/cm2, 0.83 µg/cm2 / pest or weed control at 1.7 µg/cm2, 1.7 µg/cm2 / pest or weed control at 8.3 µg/cm2, 8.3 µg/cm2 / pest or weed control at 16.7 µg/cm2, 16.7 µg/cm2 / pest or weed control at 83.3 µg/cm2, 83.3 µg/cm2: Aedes albopictus, topical, read-out: Protection efficacy PE%; for 100% PE: Table S1; for Protection efficacy (dose to obtain complete protection (100%) from bite attempts): applied on skin of volunteers, 3 min exposure
Procedure: The repellence of DEET, Icaridin (both supplied by Istituto Biochimico VEBI s.r.l.), acetals, and the synthesized hydroxyacetals was evaluated againstAedes albopictususing the human-bait technique (to simulate the condition of human skin on which repellents will be applied).[22]A. albopictuswas reared and tested at 26 ± 2 °C, ≥60 ± 10% relative humidity (RH), and at 14:10 h light/dark photoperiod, within Plexiglas cylindrical laboratory cages (35 cm diameter, 60 cm length) with one end closed by a net. During the tests, cages contained ≈150 nulliparous, 4–7 day-old, nonblood-fed females. For each compound to be tested, up to six volunteers participated in the trial.
The study was approved by the Regional Ethics Committee for Clinical Trials of Tuscany Region with the registered number 20383. Volunteers agreed to take part in the experiments following informed consent; only volunteers non-allergic to mosquito bites participated in the trials. On the day of the bioassay, they had no contact with lotions, perfumes, oils, or perfumed soaps. They wore latex surgical gloves, in which a dorsal square area of 30 cm^2 was cut open. Mosquito-exposed skin was treated with 50 μL of ethanol, as the negative hand control. The other hand was treated with 50 μL of the tested compounds in ethanol solution (dosages corresponding to 0.081, 0.17, 0.33, 0.5, 0.83, 1.7, 8.3, 16.7, and 83.3 μg/cm^2). Both hands were presented in the same test cage. The number of probing mosquitoes in a 3 min exposure period was recorded. During each test, the control and the treated hand were presented interchanged to verify the mosquitoes’ readiness to bite. Trials were considered valid only if at least 30 mosquitoes performed probing behavior on the control hand before each repellent dosage was tested. The protection efficacy (PE %) obtained from all replicates was calculated, according to the WHO guidelines[31] using this formula [drawing 1]
To evaluate the protection efficacy, volunteers applied increasing doses of the compounds to the skin on the back of their hands (30 cm^2, while the rest was covered with a rubber glove) and counted the number of mosquitoes attempting to bite; the solvent only was used on the control hand. The protection (percentage of repelled mosquitoes) was calculated as reported in the Material and Methods section.

| SMILES | survival of keratocytes (HaCaT cells) | pest or weed control at 0.17 mg/cm2, 0.17 mg/cm2 (Aedes albopictus [1]; 0.17mg/cm2, 1 h) | pest or weed control at 0.17 mg/cm2, 0.17 mg/cm2 (Aedes albopictus [1]; 0.17mg/cm2, 2 h) | pest or weed control at 0.17 mg/cm2, 0.17 mg/cm2 (Aedes albopictus [1]; 0.17mg/cm2, 3 h) | pest or weed control at 0.17 mg/cm2, 0.17 mg/cm2 (Aedes albopictus [1]; 0.17mg/cm2, 4 h) | pest or weed control at 0.17 mg/cm2, 0.17 mg/cm2 (Aedes albopictus [1]; 0.17mg/cm2, 5 h) | pest or weed control at 0.17 mg/cm2, 0.17 mg/cm2 (Aedes albopictus [1]; 0.17mg/cm2, 6 h) | pest or weed control at 0.17 mg/cm2, 0.17 mg/cm2 (Aedes albopictus [1]; 0.17mg/cm2, 7 h) | pest or weed control at 0.17 mg/cm2, 0.17 mg/cm2 (Aedes albopictus [1]; 0.17mg/cm2, 8 h) | Average PT >95% (% coefficient of variation) (Aedes albopictus [1]) | Estimated 100% PT (complete protection time, mean±SE) (Aedes albopictus [1]) | Protection time (95% protection) (Aedes albopictus [1]) | immunogenicity (nitric oxide release / nitrite production), in words (RAW 264.7) | pest or weed control at 0.081 µg/cm2, 0.081 µg/cm2 (Aedes albopictus [2]; 0.081 µg/cm2) | pest or weed control at 0.17 µg/cm2, 0.17 µg/cm2 (Aedes albopictus [2]; 0.17 µg/cm2) | pest or weed control at 0.33 µg/cm2, 0.33 µg/cm2 (Aedes albopictus [2]; 0.33 µg/cm2) | pest or weed control at 0.5 µg/cm2, 0.5 µg/cm2 (Aedes albopictus [2]; 0.5 µg/cm2) | pest or weed control at 0.83 µg/cm2, 0.83 µg/cm2 (Aedes albopictus [2]; 0.83 µg/cm2) | pest or weed control at 1.7 µg/cm2, 1.7 µg/cm2 (Aedes albopictus [2]; 1.7 µg/cm2) | pest or weed control at 8.3 µg/cm2, 8.3 µg/cm2 (Aedes albopictus [2]; 8.3 µg/cm2) | further results |
| --- | --- | --- | --- | --- | --- | --- | --- | --- | --- | --- | --- | --- | --- | --- | --- | --- | --- | --- | --- | --- | --- |
| OCC1COC2(CCCCCCC2)O1 (centres unmarked) [12a] | > 88% and 100% | 100% | 100% | 100% | 100% | 100% | 97.1% | 96.9% | 100% | 480 (0) min | 380 ± 20 min | 8 h | did not exhibit immunogenicity; also recorded: indistinguishable from the negative control | 46.3% | 58.9% | 62.2% | 87% | 90.7% | 100% | 100% | permeability value lower compared to Icaridin (Caco-2 monolayer): 44%; pest or weed control at 16.7 µg/cm2, 16.7 µg/cm2 (Aedes albopictus [2]; 16.7 µg/cm2): 100%; pest or weed control at 83.3 µg/cm2, 83.3 µg/cm2 (Aedes albopictus [2]; 83.3 µg/cm2): 100%; 100% PE (Aedes albopictus [2]): 1.7 µg/cm2; Protection efficacy (dose to obtain complete protection (100%) from bite attempts) (Aedes albopictus [2]): 1.7 μg/cm^2 |
| CCCCC1(CCCC)OCC(CC)(CO)CO1 [16c] | > 88% | 99% | 96.3% | 97.6% | 97.1% | 94.8% | 95.4% | 95.1% | 99% | 480 (1.4) min | – | 8 h | – | 6.06% | 59.5% | 8.39% | 36.2% | 52.9% | 95.5% | 100% | pest or weed control at 16.7 µg/cm2, 16.7 µg/cm2 (Aedes albopictus [2]; 16.7 µg/cm2): 100%; pest or weed control at 83.3 µg/cm2, 83.3 µg/cm2 (Aedes albopictus [2]; 83.3 µg/cm2): 100%; 100% PE (Aedes albopictus [2]): 1.7 µg/cm2; Protection efficacy (dose to obtain complete protection (100%) from bite attempts) (Aedes albopictus [2]): 8.3 μg/cm^2 |
| CC(C)CC1(CC(C)C)OCC(C)(CO)CO1 [17b] | > 88% and 92% | 100% | 98.7% | 99.1% | 100% | 96.8% | 93.6% | 95.6% | 96.5% | 480 (5.0) min | 300 ± 94 min | 8 h | did not exhibit immunogenicity; also recorded: indistinguishable from the negative control | 8.33% | 27.8% | 50.8% | 44.4% | 58.1% | 94.8% | 100% | permeability value lower compared to Icaridin (Caco-2 monolayer): 17%; pest or weed control at 16.7 µg/cm2, 16.7 µg/cm2 (Aedes albopictus [2]; 16.7 µg/cm2): 100%; pest or weed control at 83.3 µg/cm2, 83.3 µg/cm2 (Aedes albopictus [2]; 83.3 µg/cm2): 100%; Protection efficacy (dose to obtain complete protection (100%) from bite attempts) (Aedes albopictus [2]): 8.3 μg/cm^2 |
| CCC(C)OC(=O)N1CCCCC1CCO (centres unmarked) [Icaridin, reference compound] | 91% | – | – | – | – | – | – | – | – | 480 (2.2) min | 370 ± 52 min | – | three-time increase in the nitrite production compared to the control treatment | – | – | – | – | – | – | – | Protection time PE% (Aedes albopictus [1]; 0.17mg/cm2, 0 min): 100%; pest or weed control at 0.17 mg/cm2, 0.17 mg/cm2 (Aedes albopictus [1]; 1 h): 100%; pest or weed control at 0.17 mg/cm2, 0.17 mg/cm2 (Aedes albopictus [1]; 2 h): 100%; pest or weed control at 0.17 mg/cm2, 0.17 mg/cm2 (Aedes albopictus [1]; 3 h): 99.5%; pest or weed control at 0.17 mg/cm2, 0.17 mg/cm2 (Aedes albopictus [1]; 4 h): 99.5%; pest or weed control at 0.17 mg/cm2, 0.17 mg/cm2 (Aedes albopictus [1]; 5 h): 99.8%; pest or weed control at 0.17 mg/cm2, 0.17 mg/cm2 (Aedes albopictus [1]; 6 h): 98.7%; pest or weed control at 0.17 mg/cm2, 0.17 mg/cm2 (Aedes albopictus [1]; 7 h): 98.7%; pest or weed control at 0.17 mg/cm2, 0.17 mg/cm2 (Aedes albopictus [1]; 8 h): 97.6%; production of nitrite as compared to the positive control (RAW 264.7; RAW264.7, positive control LPS 1 μg/mL): 40%; pest or weed control at 0.081 µg/cm2, 0.081 µg/cm2 (Aedes albopictus [2]): 42.4%; pest or weed control at 0.17 µg/cm2, 0.17 µg/cm2 (Aedes albopictus [2]): 53.7%; pest or weed control at 0.33 µg/cm2, 0.33 µg/cm2 (Aedes albopictus [2]): 61.8%; pest or weed control at 0.5 µg/cm2, 0.5 µg/cm2 (Aedes albopictus [2]): 77.8%; pest or weed control at 0.83 µg/cm2, 0.83 µg/cm2 (Aedes albopictus [2]): 69.3%; pest or weed control at 1.7 µg/cm2, 1.7 µg/cm2 (Aedes albopictus [2]): 99.6%; pest or weed control at 8.3 µg/cm2, 8.3 µg/cm2 (Aedes albopictus [2]): 100%; pest or weed control at 16.7 µg/cm2, 16.7 µg/cm2 (Aedes albopictus [2]): 100%; pest or weed control at 83.3 µg/cm2, 83.3 µg/cm2 (Aedes albopictus [2]): 100%; 100% PE (Aedes albopictus [2]): 8.3 µg/cm2 |
